Our source for the Activity values is ChEMBL document CHEMBL5715954, “Silencing c-Myc translation as a therapeutic strategy through targeting PI3Kδ and CK1ε in hematological malignancies” (Blood, 2017).

What all share (design): scale not given: the % may be the effect or the level left
Experiment [1] addresses Maternal embryonic leucine zipper kinase (Homo sapiens) (UniProt Q14680). Nature of the experiment: Inhibition of human MELK assessed as enzyme activity at 1 uM using KKLNRTLSFAEPG as substrate preincubated for 20 mins followed by [gamma-33P]-ATP addition and measured after 120 mins by radiometric Hot-SpotSM Kinase assay relative to control.
The target in experiment [2] is Casein kinase II subunit alpha' (Homo sapiens) (UniProt P19784). Kind of experiment: Inhibition of human CK2a2 assessed as enzyme activity at 1 uM using RRRDDDSDDD as substrate preincubated for 20 mins followed by [gamma-33P]-ATP addition and measured after 120 mins by radiometric Hot-SpotSM Kinase assay relative to control.
The target of experiment [3] is T1, Ephrin type-A receptor 6 (Homo sapiens) (UniProt Q9UF33).
T1 sequence (whole entry): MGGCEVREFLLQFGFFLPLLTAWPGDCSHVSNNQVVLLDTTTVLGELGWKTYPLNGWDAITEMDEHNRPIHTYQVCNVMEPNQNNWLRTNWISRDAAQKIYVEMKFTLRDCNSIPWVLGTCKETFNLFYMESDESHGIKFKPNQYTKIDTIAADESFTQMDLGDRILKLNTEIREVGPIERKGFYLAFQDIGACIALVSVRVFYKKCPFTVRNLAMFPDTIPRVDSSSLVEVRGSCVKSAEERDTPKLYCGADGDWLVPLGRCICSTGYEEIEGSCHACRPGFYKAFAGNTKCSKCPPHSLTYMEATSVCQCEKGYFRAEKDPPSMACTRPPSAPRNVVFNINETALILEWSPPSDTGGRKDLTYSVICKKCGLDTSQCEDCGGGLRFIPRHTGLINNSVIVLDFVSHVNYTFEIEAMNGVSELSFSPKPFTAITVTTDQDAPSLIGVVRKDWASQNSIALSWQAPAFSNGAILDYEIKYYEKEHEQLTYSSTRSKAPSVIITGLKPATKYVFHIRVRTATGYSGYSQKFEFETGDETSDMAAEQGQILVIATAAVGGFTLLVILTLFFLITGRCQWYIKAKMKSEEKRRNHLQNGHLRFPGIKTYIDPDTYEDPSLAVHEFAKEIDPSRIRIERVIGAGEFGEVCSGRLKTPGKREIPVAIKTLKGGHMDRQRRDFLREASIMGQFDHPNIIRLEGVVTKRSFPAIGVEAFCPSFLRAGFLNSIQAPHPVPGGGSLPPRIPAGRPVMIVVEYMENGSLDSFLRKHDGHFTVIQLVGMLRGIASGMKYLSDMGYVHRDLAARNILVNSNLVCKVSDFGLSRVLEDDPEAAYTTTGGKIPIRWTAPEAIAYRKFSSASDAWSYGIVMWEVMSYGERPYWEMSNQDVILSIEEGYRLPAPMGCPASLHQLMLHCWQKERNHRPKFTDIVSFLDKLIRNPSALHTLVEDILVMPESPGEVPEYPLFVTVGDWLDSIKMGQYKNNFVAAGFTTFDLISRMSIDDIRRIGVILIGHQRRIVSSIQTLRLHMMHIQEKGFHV
Nature of the experiment: Inhibition of human EPHA6 assessed as enzyme activity at 1 uM using poly[Glu:Tyr] (4:1) as substrate preincubated for 20 mins followed by [gamma-33P]-ATP addition and measured after 120 mins by radiometric Hot-SpotSM Kinase assay relative to control.

Experiment [4] addresses RAF proto-oncogene serine/threonine-protein kinase (Homo sapiens) (UniProt P04049). Kind of experiment: Inhibition of human RAF1 assessed as enzyme activity at 1 uM using MEK1 (K97R) as substrate preincubated for 20 mins followed by [gamma-33P]-ATP addition and measured after 120 mins by radiometric Hot-SpotSM Kinase assay relative to control.
For experiment [5], the target named is T2, Serine/threonine-protein kinase PLK4 (Homo sapiens) (UniProt O00444).
T2 sequence (whole entry): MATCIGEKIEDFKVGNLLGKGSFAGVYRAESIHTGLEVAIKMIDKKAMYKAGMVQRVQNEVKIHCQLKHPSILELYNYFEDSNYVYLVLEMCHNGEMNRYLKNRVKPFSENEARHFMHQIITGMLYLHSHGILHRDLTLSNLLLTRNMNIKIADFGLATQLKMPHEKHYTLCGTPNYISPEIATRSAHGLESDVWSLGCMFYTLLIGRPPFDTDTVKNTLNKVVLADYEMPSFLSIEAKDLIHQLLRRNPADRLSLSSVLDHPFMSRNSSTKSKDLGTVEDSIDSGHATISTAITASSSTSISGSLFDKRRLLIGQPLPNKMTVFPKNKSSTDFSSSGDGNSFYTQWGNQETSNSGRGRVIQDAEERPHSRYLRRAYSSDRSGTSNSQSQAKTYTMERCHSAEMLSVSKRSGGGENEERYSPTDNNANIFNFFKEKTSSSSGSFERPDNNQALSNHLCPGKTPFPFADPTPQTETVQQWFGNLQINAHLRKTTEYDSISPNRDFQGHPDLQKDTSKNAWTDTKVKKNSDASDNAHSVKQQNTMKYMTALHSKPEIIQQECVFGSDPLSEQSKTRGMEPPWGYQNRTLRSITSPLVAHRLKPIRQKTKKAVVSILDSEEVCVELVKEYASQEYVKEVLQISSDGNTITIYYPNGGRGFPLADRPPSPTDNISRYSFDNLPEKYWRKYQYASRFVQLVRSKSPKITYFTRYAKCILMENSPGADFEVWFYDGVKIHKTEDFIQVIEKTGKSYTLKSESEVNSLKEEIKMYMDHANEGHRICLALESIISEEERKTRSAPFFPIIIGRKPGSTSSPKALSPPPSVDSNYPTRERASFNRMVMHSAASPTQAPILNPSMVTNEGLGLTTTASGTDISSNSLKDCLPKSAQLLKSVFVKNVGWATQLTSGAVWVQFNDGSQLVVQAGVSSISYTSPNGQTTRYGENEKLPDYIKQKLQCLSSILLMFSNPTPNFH
Kind of experiment: Inhibition of human PLK4 assessed as enzyme activity at 1 uM using casein as substrate preincubated for 20 mins followed by [gamma-33P]-ATP addition and measured after 120 mins by radiometric Hot-SpotSM Kinase assay relative to control.

For experiment [6], the target named is Casein kinase I isoform alpha (Homo sapiens) (UniProt P48729). Nature of the experiment: Inhibition of human CK1a1 assessed as enzyme activity at 1 uM using KRRRAL[pS]VASLPGL as substrate preincubated for 20 mins followed by [gamma-33P]-ATP addition and measured after 120 mins by radiometric Hot-SpotSM Kinase assay relative to control.
The target of experiment [7] is Myosin-IIIa (Homo sapiens) (UniProt Q8NEV4). Kind of experiment: Inhibition of human MYO3A assessed as enzyme activity at 1 uM using myelin basic protein as substrate preincubated for 20 mins followed by [gamma-33P]-ATP addition and measured after 120 mins by radiometric Hot-SpotSM Kinase assay relative to control.
Experiment [8] concerns the target Cyclin-Y/Cyclin-dependent kinase 16 (Homo sapiens) (UniProt Q00536+Q8ND76). Kind of experiment: Inhibition of human CDK16/cyclin Y assessed as enzyme activity at 1 uM using RB Protein as substrate preincubated for 20 mins followed by [gamma-33P]-ATP addition and measured after 120 mins by radiometric Hot-SpotSM Kinase assay relative to control. The experiment is classed as protein-complex assay.

Sequence of Casein kinase II subunit alpha' (Homo sapiens) (P19784 whole entry, looked up): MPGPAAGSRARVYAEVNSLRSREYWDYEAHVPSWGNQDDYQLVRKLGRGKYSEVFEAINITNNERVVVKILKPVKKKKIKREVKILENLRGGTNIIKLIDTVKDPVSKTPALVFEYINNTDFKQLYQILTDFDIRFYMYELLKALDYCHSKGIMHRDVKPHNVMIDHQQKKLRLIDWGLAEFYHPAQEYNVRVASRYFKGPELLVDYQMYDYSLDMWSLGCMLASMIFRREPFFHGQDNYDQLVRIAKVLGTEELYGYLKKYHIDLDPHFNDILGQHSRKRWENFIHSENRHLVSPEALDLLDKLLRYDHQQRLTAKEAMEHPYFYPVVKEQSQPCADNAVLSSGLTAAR
Sequence of Maternal embryonic leucine zipper kinase (Homo sapiens) (Q14680 whole entry, looked up): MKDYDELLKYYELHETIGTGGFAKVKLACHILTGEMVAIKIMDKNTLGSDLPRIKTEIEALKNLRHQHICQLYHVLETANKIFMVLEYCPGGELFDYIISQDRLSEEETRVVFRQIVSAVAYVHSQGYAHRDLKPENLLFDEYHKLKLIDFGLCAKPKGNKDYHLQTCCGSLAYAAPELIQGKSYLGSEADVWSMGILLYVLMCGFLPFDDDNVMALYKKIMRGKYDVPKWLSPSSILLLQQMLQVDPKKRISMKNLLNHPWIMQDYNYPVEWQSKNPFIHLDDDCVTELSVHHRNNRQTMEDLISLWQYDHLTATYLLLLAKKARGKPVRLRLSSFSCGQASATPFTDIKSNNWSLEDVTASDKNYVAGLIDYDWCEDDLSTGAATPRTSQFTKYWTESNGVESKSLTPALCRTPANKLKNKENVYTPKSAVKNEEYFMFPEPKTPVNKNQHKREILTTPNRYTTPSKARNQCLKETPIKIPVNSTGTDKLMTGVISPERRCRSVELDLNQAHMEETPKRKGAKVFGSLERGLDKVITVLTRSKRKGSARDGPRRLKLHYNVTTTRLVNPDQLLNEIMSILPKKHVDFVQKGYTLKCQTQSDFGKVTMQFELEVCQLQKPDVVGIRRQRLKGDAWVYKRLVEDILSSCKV
Sequence of Casein kinase I isoform alpha (Homo sapiens) (P48729 2-337 limits assumed): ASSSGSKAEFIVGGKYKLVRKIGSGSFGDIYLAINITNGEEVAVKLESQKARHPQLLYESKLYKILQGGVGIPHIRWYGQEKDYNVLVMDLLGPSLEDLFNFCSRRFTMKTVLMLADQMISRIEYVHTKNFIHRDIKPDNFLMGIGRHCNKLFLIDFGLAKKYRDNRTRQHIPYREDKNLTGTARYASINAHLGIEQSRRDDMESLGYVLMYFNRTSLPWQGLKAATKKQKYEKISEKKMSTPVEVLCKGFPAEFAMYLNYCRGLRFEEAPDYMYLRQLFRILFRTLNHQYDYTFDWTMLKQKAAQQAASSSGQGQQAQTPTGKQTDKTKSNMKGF
Sequence of Myosin-IIIa (Homo sapiens) (Q8NEV4 whole entry): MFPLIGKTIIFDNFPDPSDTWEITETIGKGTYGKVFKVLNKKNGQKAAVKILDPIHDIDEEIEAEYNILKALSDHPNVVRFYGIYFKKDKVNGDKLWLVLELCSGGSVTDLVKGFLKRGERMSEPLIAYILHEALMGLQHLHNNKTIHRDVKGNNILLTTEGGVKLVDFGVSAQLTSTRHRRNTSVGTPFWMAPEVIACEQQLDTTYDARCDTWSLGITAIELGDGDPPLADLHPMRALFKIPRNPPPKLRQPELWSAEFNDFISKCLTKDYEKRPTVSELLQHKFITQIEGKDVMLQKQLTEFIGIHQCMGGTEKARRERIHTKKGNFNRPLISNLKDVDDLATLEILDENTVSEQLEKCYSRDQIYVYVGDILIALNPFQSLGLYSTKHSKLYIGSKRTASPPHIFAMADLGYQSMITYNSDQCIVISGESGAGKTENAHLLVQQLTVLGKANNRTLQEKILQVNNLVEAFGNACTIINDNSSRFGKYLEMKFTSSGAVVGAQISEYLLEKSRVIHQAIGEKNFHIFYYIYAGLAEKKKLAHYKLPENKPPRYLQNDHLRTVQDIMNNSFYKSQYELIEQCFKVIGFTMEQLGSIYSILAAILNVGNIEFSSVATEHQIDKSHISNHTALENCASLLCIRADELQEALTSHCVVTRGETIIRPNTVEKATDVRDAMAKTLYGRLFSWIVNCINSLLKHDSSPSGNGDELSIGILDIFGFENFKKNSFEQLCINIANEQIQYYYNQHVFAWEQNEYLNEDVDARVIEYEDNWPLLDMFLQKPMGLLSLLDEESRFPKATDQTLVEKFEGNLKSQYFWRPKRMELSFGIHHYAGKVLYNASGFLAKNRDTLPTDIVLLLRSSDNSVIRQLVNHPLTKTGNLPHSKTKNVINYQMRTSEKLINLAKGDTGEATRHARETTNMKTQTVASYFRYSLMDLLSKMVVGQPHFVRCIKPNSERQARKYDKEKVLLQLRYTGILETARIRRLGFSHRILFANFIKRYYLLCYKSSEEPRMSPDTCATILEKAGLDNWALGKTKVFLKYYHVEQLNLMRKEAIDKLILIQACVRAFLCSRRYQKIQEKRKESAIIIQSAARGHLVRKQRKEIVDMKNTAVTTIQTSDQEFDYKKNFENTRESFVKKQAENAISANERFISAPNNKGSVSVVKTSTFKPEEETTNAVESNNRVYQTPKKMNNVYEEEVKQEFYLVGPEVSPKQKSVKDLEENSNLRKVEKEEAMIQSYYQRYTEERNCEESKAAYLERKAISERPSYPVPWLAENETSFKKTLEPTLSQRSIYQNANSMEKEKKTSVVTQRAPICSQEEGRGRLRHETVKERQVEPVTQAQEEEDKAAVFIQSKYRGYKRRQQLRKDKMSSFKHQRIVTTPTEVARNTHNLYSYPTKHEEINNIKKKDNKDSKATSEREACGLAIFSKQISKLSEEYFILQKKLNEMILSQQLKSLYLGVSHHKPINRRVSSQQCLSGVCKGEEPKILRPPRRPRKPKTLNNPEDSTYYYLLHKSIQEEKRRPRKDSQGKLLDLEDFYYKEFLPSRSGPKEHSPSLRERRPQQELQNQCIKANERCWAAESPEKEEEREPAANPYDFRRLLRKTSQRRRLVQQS
Sequence of RAF proto-oncogene serine/threonine-protein kinase (Homo sapiens) (P04049 whole entry): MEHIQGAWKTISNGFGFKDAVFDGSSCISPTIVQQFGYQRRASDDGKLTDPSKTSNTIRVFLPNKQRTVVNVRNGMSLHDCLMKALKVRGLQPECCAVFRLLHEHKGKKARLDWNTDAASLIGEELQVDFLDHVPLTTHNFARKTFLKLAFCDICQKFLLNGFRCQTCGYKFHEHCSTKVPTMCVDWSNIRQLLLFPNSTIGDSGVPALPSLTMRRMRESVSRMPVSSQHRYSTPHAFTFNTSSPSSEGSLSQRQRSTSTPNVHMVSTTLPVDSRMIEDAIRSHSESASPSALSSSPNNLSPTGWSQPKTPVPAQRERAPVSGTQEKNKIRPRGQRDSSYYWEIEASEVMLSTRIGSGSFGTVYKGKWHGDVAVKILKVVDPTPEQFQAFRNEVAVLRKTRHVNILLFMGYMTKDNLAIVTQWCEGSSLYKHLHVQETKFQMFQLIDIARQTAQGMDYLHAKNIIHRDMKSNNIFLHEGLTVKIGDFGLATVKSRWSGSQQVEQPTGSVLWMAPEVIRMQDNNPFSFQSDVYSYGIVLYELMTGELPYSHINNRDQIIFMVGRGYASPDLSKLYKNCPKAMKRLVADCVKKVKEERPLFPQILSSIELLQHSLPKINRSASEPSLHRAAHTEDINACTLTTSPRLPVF

With `C[C@H](Nc1ncnc2nc[nH]c12)c1cc2cccc(Cl)c2c(=O)n1-c1ccccc1`, the Activity was found to be 94.5% in experiment [1]; 99.5% in experiment [2]; 86.9% in experiment [3]; 93.5% in experiment [4]; 91% in experiment [5]; 111% in experiment [6]. Besides, the Activity in experiment [7] is 93.6%; in experiment [8], 97.7%.
`CC[C@H](Nc1ncnc2[nH]cnc12)c1nc2cccc(F)c2c(=O)n1-c1ccccc1`: the Activity in experiment [1] is 93.6%; in experiment [2] it was 91.8%; in experiment [3] it was 87.7%; in experiment [4] it was 95.3%; in experiment [5] it was 99.9%; in experiment [6] it was 107%. Also, the Activity in experiment [7] was 91.7%; in experiment [8], 96.5%.
As for `CC(C)Oc1ccc(-c2nn([C@@H](C)c3oc4ccc(F)cc4c(=O)c3-c3cccc(F)c3)c3ncnc(N)c23)cc1F` [UMBRALISIB], the Activity in experiment [1] came to 105%; in experiment [2] it was 86.4%; in experiment [3], 81.3%; in experiment [4], 93.1%; in experiment [5], 102%; in experiment [6] it was 111%. Moreover, the Activity is 84.7% in experiment [7] and 98.5% in experiment [8].
